Data as given in PubChem BioAssay AID1918949 (Molecular Pharmacology Branch, DTP, NCI, 2023).

Tested on: K24384-001-R-PDC complex spheroid viability
Experiment: Anticancer human tumor K24384-001-R-PDC patient-derived pancreatic adenocarcinoma cell line growth inhibition
Details: for IC50: curve of first compound; for viability, T/C: stronger effect = lower value
Method in brief: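 Complex spheroids of tumor cells with HUVEC and human MSCs, exposed to iadademstat combined with other agents. Each agent tested in half-log steps from near clinical Cmax (else 10 microM top), DMSO ≤0.25%.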

[1] = second compound 0.1 µM, first compound 0.0316 µM
[2] = second compound 0.1 µM, first compound 0.1 µM
[3] = second compound 0.1 µM, first compound 0.316 µM
[4] = second compound 0.1 µM, first compound 1 µM
[5] = second compound 0.316 µM, first compound 0.0316 µM
[6] = second compound 0.316 µM, first compound 0.1 µM
[7] = second compound 0.316 µM, first compound 0.316 µM
[8] = second compound 0.316 µM, first compound 1 µM
[9] = second compound 1 µM, first compound 0.0316 µM
[10] = second compound 1 µM, first compound 0.1 µM
[11] = second compound 1 µM, first compound 0.316 µM
[12] = second compound 1 µM, first compound 1 µM
[13] = second compound 3.16 µM, first compound 0.0316 µM
[14] = second compound 3.16 µM, first compound 0.1 µM
[15] = second compound 3.16 µM, first compound 0.316 µM
[16] = second compound 3.16 µM, first compound 1 µM
[17] = second compound 10 µM, first compound 0.0316 µM
[18] = second compound 10 µM, first compound 0.1 µM
[19] = second compound 10 µM, first compound 0.316 µM
[20] = second compound 10 µM, first compound 1 µM
[21] = second compound 0.1 µM, first compound 0.00949 µM
[22] = second compound 0.1 µM, first compound 0.03 µM
[23] = second compound 0.1 µM, first compound 0.0949 µM
[24] = second compound 0.1 µM, first compound 0.3 µM
[25] = second compound 0.316 µM, first compound 0.00949 µM
[26] = second compound 0.316 µM, first compound 0.03 µM
[27] = second compound 0.316 µM, first compound 0.0949 µM
[28] = second compound 0.316 µM, first compound 0.3 µM
[29] = second compound 1 µM, first compound 0.00949 µM
[30] = second compound 1 µM, first compound 0.03 µM
[31] = second compound 1 µM, first compound 0.0949 µM
[32] = second compound 1 µM, first compound 0.3 µM
[33] = second compound 3.16 µM, first compound 0.00949 µM
[34] = second compound 3.16 µM, first compound 0.03 µM
[35] = second compound 3.16 µM, first compound 0.0949 µM
[36] = second compound 3.16 µM, first compound 0.3 µM
[37] = second compound 10 µM, first compound 0.00949 µM
[38] = second compound 10 µM, first compound 0.03 µM
[39] = second compound 10 µM, first compound 0.0949 µM
[40] = second compound 10 µM, first compound 0.3 µM
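Further: spheroids exposed to agents for seven days before luminescence viability reading.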
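Wherever viability, T/C is given: 100% = DMSO vehicle control viability.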

In the case of `CC1COCCN1c1cc(C2(S(C)(=N)=O)CC2)nc(-c2ccnc3[nH]ccc23)n1` (stereo not given) + NC1CCC(NC2CC2c2ccccc2)CC1, the IC50 (second compound 0.1 µM) is reported as 2450 nM, the IC50 (second compound 0.316 µM) is reported as 1630 nM and the IC50 (second compound 1 µM) is reported as 2320 nM. It also gave an IC50 (second compound 3.16 µM) of 1830 nM, an IC50 (second compound 10 µM) of 1710 nM and a viability, T/C [1] of 82.9%. For the same compound, the viability, T/C [2] was 79.5%, the viability, T/C [3] was 91.1% and the viability, T/C [4] was 71.5%. For the same compound, the viability, T/C (second compound 0.1 µM, first compound 3.16 µM) was 43.2%, the viability, T/C (second compound 0.1 µM, first compound 10 µM) was 44.5% and the viability, T/C [5] was 95.2%. The viability, T/C [6] was 90.1%, the viability, T/C [7] was 107% and the viability, T/C [8] was 57.5%. For the same compound, the viability, T/C (second compound 0.316 µM, first compound 3.16 µM) was 45.5%, the viability, T/C (second compound 0.316 µM, first compound 10 µM) was 34.3% and the viability, T/C [9] was 84.4%. It also gave a viability, T/C [10] of 88%, a viability, T/C [11] of 84.3% and a viability, T/C [12] of 67%. The viability, T/C (second compound 1 µM, first compound 3.16 µM) was 44%, the viability, T/C (second compound 1 µM, first compound 10 µM) was 38.9% and the viability, T/C [13] was 80.6%. The viability, T/C [14] was 97.6%, the viability, T/C [15] was 82.9% and the viability, T/C [16] was 60.4%. For the same compound, the viability, T/C (second compound 3.16 µM, first compound 3.16 µM) was 41.8%, the viability, T/C (second compound 3.16 µM, first compound 10 µM) was 34.4% and the viability, T/C [17] was 79.6%. The viability, T/C [18] was 74%, the viability, T/C [19] was 76.8% and the viability, T/C [20] was 60.4%. It also gave a viability, T/C (second compound 10 µM, first compound 3.16 µM) of 36.9% and a viability, T/C (second compound 10 µM, first compound 10 µM) of 39%.

For `CCN(c1cc(-c2ccc(CN3CCOCC3)cc2)cc(C(=O)NCc2c(C)cc(C)[nH]c2=O)c1C)C1CCOCC1` + NC1CCC(NC2CC2c2ccccc2)CC1, the IC50 (second compound 0.1 µM) was over 3000 nM, the IC50 (second compound 0.316 µM) was over 3000 nM and the IC50 (second compound 1 µM) was over 3000 nM. The IC50 (second compound 3.16 µM) was over 3000 nM, the IC50 (second compound 10 µM) was over 3000 nM and the viability, T/C [21] was 96%. It also gave a viability, T/C [22] of 80.3%, a viability, T/C [23] of 80.6% and a viability, T/C [24] of 107%. For the same compound, the viability, T/C (second compound 0.1 µM, first compound 0.949 µM) was 86.5%, the viability, T/C (second compound 0.1 µM, first compound 3 µM) was 57.5% and the viability, T/C [25] was 96.7%. For the same compound, the viability, T/C [26] was 92.1%, the viability, T/C [27] was 94.7% and the viability, T/C [28] was 92.1%. For the same compound, the viability, T/C (second compound 0.316 µM, first compound 0.949 µM) was 93.7%, the viability, T/C (second compound 0.316 µM, first compound 3 µM) was 71.1% and the viability, T/C [29] was 98.4%. It also gave a viability, T/C [30] of 84.3%, a viability, T/C [31] of 103% and a viability, T/C [32] of 83.7%. It also gave a viability, T/C (second compound 1 µM, first compound 0.949 µM) of 82.2%, a viability, T/C (second compound 1 µM, first compound 3 µM) of 62.9% and a viability, T/C [33] of 81.3%. It also gave a viability, T/C [34] of 104%, a viability, T/C [35] of 91.6% and a viability, T/C [36] of 79.1%. For the same compound, the viability, T/C (second compound 3.16 µM, first compound 0.949 µM) was 73%, the viability, T/C (second compound 3.16 µM, first compound 3 µM) was 70.2% and the viability, T/C [37] was 80.3%. For the same compound, the viability, T/C [38] was 82.7%, the viability, T/C [39] was 98.8% and the viability, T/C [40] was 73.7%. For the same compound, the viability, T/C (second compound 10 µM, first compound 0.949 µM) was 79.1% and the viability, T/C (second compound 10 µM, first compound 3 µM) was 70.5%.

For `Nc1ncn(C2CC(O)C(CO)S2)c(=O)n1` (stereo not given) + NC1CCC(NC2CC2c2ccccc2)CC1, the IC50 (second compound 0.1 µM) was over 300 nM, the IC50 (second compound 0.316 µM) was over 300 nM and the IC50 (second compound 1 µM) was over 300 nM. It also gave an IC50 (second compound 3.16 µM) of over 300 nM, an IC50 (second compound 10 µM) of over 300 nM and a viability, T/C (second compound 0.1 µM, first compound 0.000949 µM) of 92.8%. For the same compound, the viability, T/C (second compound 0.1 µM, first compound 0.003 µM) was 85.4%, the viability, T/C [21] was 93% and the viability, T/C [22] was 70.1%. It also gave a viability, T/C [23] of 78.1%, a viability, T/C [24] of 63.3% and a viability, T/C (second compound 0.316 µM, first compound 0.000949 µM) of 97.4%. For the same compound, the viability, T/C (second compound 0.316 µM, first compound 0.003 µM) was 77.4%, the viability, T/C [25] was 80.6% and the viability, T/C [26] was 79.7%. It also gave a viability, T/C [27] of 85.1%, a viability, T/C [28] of 59.5% and a viability, T/C (second compound 1 µM, first compound 0.000949 µM) of 82.2%. It also gave a viability, T/C (second compound 1 µM, first compound 0.003 µM) of 78.1%, a viability, T/C [29] of 105% and a viability, T/C [30] of 78.5%. It also gave a viability, T/C [31] of 73.5%, a viability, T/C [32] of 65.2% and a viability, T/C (second compound 3.16 µM, first compound 0.000949 µM) of 98.1%. For the same compound, the viability, T/C (second compound 3.16 µM, first compound 0.003 µM) was 97.9%, the viability, T/C [33] was 85% and the viability, T/C [34] was 75%. The viability, T/C [35] was 81.7%, the viability, T/C [36] was 48.5% and the viability, T/C (second compound 10 µM, first compound 0.000949 µM) was 90.3%. It also gave a viability, T/C (second compound 10 µM, first compound 0.003 µM) of 98.6%, a viability, T/C [37] of 71.2% and a viability, T/C [38] of 79.5%. The viability, T/C [39] was 69.5% and the viability, T/C [40] was 61.9%.

`O=C(C=Cn1cnc(-c2cc(C(F)(F)F)cc(C(F)(F)F)c2)n1)NNc1cnccn1` + NC1CCC(NC2CC2c2ccccc2)CC1 showed an IC50 (second compound 0.1 µM) of 29.8 nM, an IC50 (second compound 0.316 µM) of 47.3 nM and an IC50 (second compound 1 µM) of 31.4 nM. For the same compound, the IC50 (second compound 3.16 µM) was 35.1 nM, the IC50 (second compound 10 µM) was 28.9 nM and the viability, T/C (second compound 0.1 µM, first compound 0.00316 µM) was 72.7%. It also gave a viability, T/C (second compound 0.1 µM, first compound 0.01 µM) of 62.3%, a viability, T/C [1] of 49.8% and a viability, T/C [2] of 36.2%. It also gave a viability, T/C [3] of 30.7%, a viability, T/C [4] of 23.9% and a viability, T/C (second compound 0.316 µM, first compound 0.00316 µM) of 75%. It also gave a viability, T/C (second compound 0.316 µM, first compound 0.01 µM) of 69.8%, a viability, T/C [5] of 57.9% and a viability, T/C [6] of 34.6%. The viability, T/C [7] was 34%, the viability, T/C [8] was 21% and the viability, T/C (second compound 1 µM, first compound 0.00316 µM) was 67%. For the same compound, the viability, T/C (second compound 1 µM, first compound 0.01 µM) was 65.1%, the viability, T/C [9] was 49.8% and the viability, T/C [10] was 31.3%. It also gave a viability, T/C [11] of 30.3%, a viability, T/C [12] of 24.3% and a viability, T/C (second compound 3.16 µM, first compound 0.00316 µM) of 64.9%. The viability, T/C (second compound 3.16 µM, first compound 0.01 µM) was 61.2%, the viability, T/C [13] was 53% and the viability, T/C [14] was 31.8%. It also gave a viability, T/C [15] of 30.3%, a viability, T/C [16] of 20.5% and a viability, T/C (second compound 10 µM, first compound 0.00316 µM) of 72.7%. The viability, T/C (second compound 10 µM, first compound 0.01 µM) was 70.5%, the viability, T/C [17] was 47.2% and the viability, T/C [18] was 31.5%. It also gave a viability, T/C [19] of 30.8% and a viability, T/C [20] of 21.6%.
